This is an account of results in patent publication US7932420B2, “Sulfonamides” (Allergan, Inc., priority 2005, dated 2011).

The target of experiment [1] is T1, hEP2 (Homo sapiens, UniProt P43116). The experiment is described as follows: in-vitro activity at prostaglandin receptor (fhEP2). In kind it is cell-based. The conditions noted are these: functional, human EP2.
The target in the next experiment is hEP4 (Homo sapiens, UniProt P35408). The experiment is described as follows: in-vitro binding to prostaglandin receptor (bhEP4). The note with it: human EP4.
hEP4, sequence (P35408 whole entry): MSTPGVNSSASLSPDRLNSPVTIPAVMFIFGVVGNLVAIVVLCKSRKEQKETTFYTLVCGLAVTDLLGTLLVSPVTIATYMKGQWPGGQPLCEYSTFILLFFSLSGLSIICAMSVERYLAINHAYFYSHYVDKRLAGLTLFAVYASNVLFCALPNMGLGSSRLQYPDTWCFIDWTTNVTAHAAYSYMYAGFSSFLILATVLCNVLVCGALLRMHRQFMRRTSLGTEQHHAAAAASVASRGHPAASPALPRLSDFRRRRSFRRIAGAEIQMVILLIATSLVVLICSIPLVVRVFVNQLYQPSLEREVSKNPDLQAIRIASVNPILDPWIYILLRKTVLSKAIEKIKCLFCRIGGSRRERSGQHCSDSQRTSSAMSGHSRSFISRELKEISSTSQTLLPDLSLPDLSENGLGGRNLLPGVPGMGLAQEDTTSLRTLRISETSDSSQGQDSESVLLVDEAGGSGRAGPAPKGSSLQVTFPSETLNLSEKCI
The target of experiment [2] is T1, hEP2. The experiment in a line: in-vitro binding to prostaglandin receptor (bhEP2). The conditions noted are these: human EP2.
Experiment [3] deals with EP2 and EP4 receptors as compared to the FP, EP1, TP, IP and DP receptors. The experiment is described as follows: in-vitro assay for binding to and activity at prostaglandin receptors (selectivity).

T1 sequence (P43116 whole entry): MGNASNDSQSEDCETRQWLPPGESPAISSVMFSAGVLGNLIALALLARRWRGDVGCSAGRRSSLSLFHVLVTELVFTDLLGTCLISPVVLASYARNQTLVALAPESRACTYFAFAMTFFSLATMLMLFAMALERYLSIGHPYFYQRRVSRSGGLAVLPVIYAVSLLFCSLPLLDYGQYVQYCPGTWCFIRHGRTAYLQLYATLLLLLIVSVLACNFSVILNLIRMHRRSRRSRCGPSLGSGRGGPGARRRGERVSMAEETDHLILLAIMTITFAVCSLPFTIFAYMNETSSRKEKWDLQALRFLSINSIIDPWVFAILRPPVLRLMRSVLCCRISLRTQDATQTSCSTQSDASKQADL

`CCCC1(C(O)C/C=C/CN(CCCCCCC(=O)O)S(C)(=O)=O)CCC1` (stereo not shown) [Example 10, 7-[[5-Hydroxy-5-(1-propylcyclobutyl)pent-2-enyl]methanesulfonylamino]heptanoic acid] registered a fhEP2 at hEP2 [1] of 248. For the same compound, at hEP4, the bhEP4 came to 50K. The same compound returned a bhEP2 at hEP2 [2] of 5560. Further, the “selectivity among prostaglandin receptors” value in experiment [3] was “selective at the EP2 and EP4 receptors”.
